Results: BigSolDB 2.1

CC(=O)C1=CC[C@H]2[C@@H]3CCC4=CC(=O)C=C[C@]4(C)[C@H]3[C@@H](O)C[C@]12C
solubility (mole fraction) (in acetone, 298.15 K): 0.00192 | solubility (mole fraction) (in acetone, 303.15 K): 0.00215 | solubility (mole fraction) (in acetone, 308.15 K): 0.00243 | solubility (mole fraction) (in acetone, 313.15 K): 0.00275 | solubility (mole fraction) (in acetone, 318.15 K): 0.00303 | solubility (mole fraction) (in acetone, 323.15 K): 0.00351 | solubility (mole fraction) (in acetone, 328.15 K): 0.0038 | solubility (mole fraction) (in ethanol, 298.15 K): 0.00213 | solubility (mole fraction) (in ethanol, 303.15 K): 0.00252 | solubility (mole fraction) (in ethanol, 308.15 K): 0.00291 | solubility (mole fraction) (in ethanol, 313.15 K): 0.00335 | solubility (mole fraction) (in ethanol, 318.15 K): 0.00395 | solubility (mole fraction) (in ethanol, 323.15 K): 0.00461 | solubility (mole fraction) (in ethanol, 328.15 K): 0.00541 | solubility (mole fraction) (in ethanol, 333.15 K): 0.00625 | solubility (mole fraction) (in ethanol, 338.15 K): 0.00722 | solubility (mole fraction) (in ethanol, 343.15 K): 0.00844 | solubility (mole fraction) (in ethanol, 348.15 K): 0.0097
